Reference: PubChem BioAssay (NCI)
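Step 1: Grow cells in 96-well plates. Step 2: Expose to compound for 48 hours at 5 concentrations. Step 3: Interpolate endpoints linearly; if unreached, use highest concentration. Abbreviation: GI50, concentration required for 50% inhibition of growth. TGI is the concentration that stops growth completely.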

How the values were obtained:
Experiment in all cases: DTP human tumour cell line panel, 48 h
[1] = tested on: ACHN renal
[2] = tested on: HOP-62 NSCLC
[3] = tested on: HS 578T breast
[4] = tested on: COLO 205 colon
[5] = tested on: SK-OV-3 ovarian
[6] = tested on: OVCAR-5 ovarian
[7] = tested on: MCF7 breast
[8] = tested on: LOX IMVI melanoma
[9] = tested on: A549 NSCLC
[10] = tested on: SF-268 CNS
[11] = tested on: SNB-75 CNS
[12] = tested on: NCI-H522 lung
[13] = tested on: SN12C renal
[14] = tested on: SK-MEL-28 melanoma
[15] = tested on: CAKI-1 renal
[16] = tested on: K-562 leukemia
[17] = tested on: SNB-19 CNS
[18] = tested on: T-47D breast
[19] = tested on: A498 renal
[20] = tested on: SW-620 colon
[21] = tested on: MOLT-4 leukemia
[22] = tested on: OVCAR-4 ovarian
[23] = tested on: MDA-MB-435
[24] = tested on: NCI-H23 lung
[25] = tested on: HL-60(TB) leukemia
[26] = tested on: KM12 colon
[27] = tested on: U251 CNS
[28] = tested on: OVCAR-3 ovarian
[29] = tested on: UO-31 renal
[30] = tested on: NCI-H460 lung
[31] = tested on: BT-549 breast
[32] = tested on: DU-145 prostate
[33] = tested on: HCT-116 colon
[34] = tested on: SK-MEL-5 melanoma
[35] = tested on: RPMI-8226 leukemia
[36] = tested on: SK-MEL-2 melanoma
[37] = tested on: SF-295 CNS
[38] = tested on: HT29 colon
[39] = tested on: MDA-MB-231 breast
[40] = tested on: PC-3 prostate
[41] = tested on: SF-539 CNS
[42] = tested on: OVCAR-8 ovarian
[43] = tested on: UACC-257 melanoma
[44] = tested on: IGROV1 ovarian
[45] = tested on: NCI/ADR-RES ovarian
[46] = tested on: CCRF-CEM leukemia
[47] = tested on: 786-0 renal
[48] = tested on: HCT-15 colon
[49] = tested on: M14 melanoma
[50] = tested on: NCI-H226 lung
[51] = tested on: SR leukemia
[52] = tested on: RXF 393 renal
[53] = tested on: HCC-2998 colon
[54] = tested on: MALME-3M melanoma
[55] = tested on: EKVX NSCLC
[56] = tested on: TK-10 renal
[57] = tested on: HOP-92 NSCLC
[58] = tested on: UACC-62 melanoma

With `COc1ccc(-c2nc(-c3ccccn3)c(-c3ccccn3)n2CC(C)C)cc1OC1CCCC1` the GI50 [1] was 6.92 µM, the TGI [1] was greater than 165 µM and the GI50 [2] was 15.3 µM. For the same compound, the TGI [2] was greater than 165 µM, the GI50 [3] was 9.71 µM and the TGI [3] was 79.4 µM. The GI50 [4] was 52.2 µM, the TGI [4] was greater than 165 µM and the GI50 [5] was 27.6 µM. For the same compound, the TGI [5] was 116 µM, the GI50 [6] was 26.5 µM and the TGI [6] was greater than 165 µM. The GI50 [7] was 6.58 µM, the TGI [7] was 115 µM and the GI50 [8] was 26.1 µM. It also gave a TGI [8] of 110 µM, a GI50 [9] of 9.02 µM and a TGI [9] of 65.1 µM. For the same compound, the GI50 [10] was 43.8 µM, the TGI [10] was greater than 165 µM and the GI50 [11] was 24 µM. For the same compound, the TGI [11] was 123 µM, the GI50 [12] was 31.4 µM and the TGI [12] was 81.3 µM. The GI50 [13] was 24.5 µM, the TGI [13] was greater than 165 µM and the GI50 [14] was 38.7 µM. For the same compound, the TGI [14] was 159 µM, the GI50 [15] was 7.44 µM and the TGI [15] was 90.2 µM. For the same compound, the GI50 [16] was 6.37 µM, the TGI [16] was greater than 165 µM and the GI50 [17] was 30.2 µM. For the same compound, the TGI [17] was greater than 165 µM, the GI50 [18] was 9.73 µM and the TGI [18] was greater than 165 µM. The GI50 [19] was 16.5 µM, the TGI [19] was 82.7 µM and the GI50 [20] was 42 µM. For the same compound, the TGI [20] was greater than 165 µM, the GI50 [21] was 18 µM and the TGI [21] was 61.6 µM. For the same compound, the GI50 [22] was 32.3 µM, the TGI [22] was 126 µM and the GI50 [23] was 31.3 µM. The TGI [23] was greater than 165 µM, the GI50 [24] was 28.5 µM and the TGI [24] was greater than 165 µM. The GI50 [25] was 21.2 µM, the TGI [25] was 58.8 µM and the GI50 [26] was 11.1 µM. For the same compound, the TGI [26] was greater than 165 µM, the GI50 [27] was 20.6 µM and the TGI [27] was 86.9 µM. It also gave a GI50 [28] of 30.3 µM, a TGI [28] of 114 µM and a GI50 [29] of 7.43 µM. It also gave a TGI [29] of 142 µM, a GI50 [30] of 32.1 µM and a TGI [30] of 99.7 µM. The GI50 [31] was 50 µM, the TGI [31] was greater than 165 µM and the GI50 [32] was 23.3 µM. It also gave a TGI [32] greater than 165 µM, a GI50 [33] of 7.35 µM and a TGI [33] greater than 165 µM. For the same compound, the GI50 [34] was 11.4 µM, the TGI [34] was 38.4 µM and the GI50 [35] was 27.4 µM. For the same compound, the TGI [35] was 80.5 µM, the GI50 [36] was 38.4 µM and the TGI [36] was 80.2 µM. For the same compound, the GI50 [37] was 9.56 µM, the TGI [37] was 106 µM and the GI50 [38] was 35.3 µM. The TGI [38] was 134 µM, the GI50 [39] was 18.2 µM and the TGI [39] was 125 µM. It also gave a GI50 [40] of 11.1 µM, a TGI [40] of 83.8 µM and a GI50 [41] of 33.8 µM. The TGI [41] was 99.7 µM, the GI50 [42] was 17.3 µM and the TGI [42] was 158 µM. The GI50 [43] was 26.2 µM, the TGI [43] was 95.3 µM and the GI50 [44] was 11.5 µM. The TGI [44] was greater than 165 µM, the GI50 [45] was 6.96 µM and the TGI [45] was greater than 165 µM. For the same compound, the GI50 [46] was 7.54 µM, the TGI [46] was 59.8 µM and the GI50 [47] was 48.7 µM. It also gave a TGI [47] greater than 165 µM, a GI50 [48] of 6.72 µM and a TGI [48] greater than 165 µM. For the same compound, the GI50 [49] was 22.7 µM, the TGI [49] was 114 µM and the GI50 [50] was 21.3 µM. For the same compound, the TGI [50] was greater than 165 µM, the GI50 [51] was 7.77 µM and the TGI [51] was 49.2 µM.
`COc1cc(-c2nc(-c3ccc(-c4nc5ccc(F)cc5[nH]4)cc3)no2)cc(OC)c1OC` was tested, and the GI50 [1] was 3.72 µM, the TGI [1] was 13.6 µM and the GI50 [2] was 3.21 µM. The TGI [2] was 9.15 µM, the GI50 [3] was 2.27 µM and the TGI [3] was 7.36 µM. It also gave a GI50 [4] of 4.77 µM, a TGI [4] of 17 µM and a GI50 [5] of 4.12 µM. It also gave a TGI [5] of 31.4 µM, a GI50 [6] of 5.59 µM and a TGI [6] of 34.5 µM. For the same compound, the GI50 [7] was 2.88 µM, the TGI [7] was 13.5 µM and the GI50 [8] was 1.65 µM. For the same compound, the TGI [8] was 3.73 µM, the GI50 [9] was 3.42 µM and the TGI [9] was 14.6 µM. For the same compound, the GI50 [10] was 3.99 µM, the TGI [10] was 32.4 µM and the GI50 [52] was 1900 nM. It also gave a TGI [52] of 5.44 µM, a GI50 [11] of 7.74 µM and a TGI [11] of 62.4 µM. It also gave a GI50 [12] of 3.04 µM, a TGI [12] of 8.98 µM and a GI50 [13] of 3.59 µM. For the same compound, the TGI [13] was 38.3 µM, the GI50 [14] was 3.78 µM and the TGI [14] was 16 µM. The GI50 [15] was 2.76 µM, the TGI [15] was 9.13 µM and the GI50 [17] was 5.62 µM. The TGI [17] was greater than 100 µM, the GI50 [18] was 2.72 µM and the TGI [18] was 7.46 µM. For the same compound, the GI50 [53] was 6.13 µM, the TGI [53] was 40.4 µM and the GI50 [54] was 2320 nM. It also gave a TGI [54] of 6.52 µM, a GI50 [19] of 4.19 µM and a TGI [19] of 26.1 µM. The GI50 [20] was 3.61 µM, the TGI [20] was 16.1 µM and the GI50 [21] was 1.99 µM. The TGI [21] was 5.44 µM, the GI50 [22] was 2.82 µM and the TGI [22] was 11.3 µM. It also gave a GI50 [23] of 2.73 µM, a TGI [23] of 10.7 µM and a GI50 [24] of 2.5 µM. For the same compound, the TGI [24] was 8.35 µM, the GI50 [25] was 2.24 µM and the TGI [25] was 5.35 µM. For the same compound, the GI50 [26] was 3.08 µM, the TGI [26] was 8.98 µM and the GI50 [27] was 3.03 µM. It also gave a TGI [27] of 28.8 µM, a GI50 [28] of 2.56 µM and a TGI [28] of 5.83 µM. The GI50 [55] was 3.45 µM, the TGI [55] was 27.4 µM and the GI50 [29] was 2.51 µM. The TGI [29] was 6.3 µM, the GI50 [30] was 2.97 µM and the TGI [30] was 12.5 µM. For the same compound, the GI50 [31] was 3.49 µM, the TGI [31] was 11.1 µM and the GI50 [32] was 3.96 µM. For the same compound, the TGI [32] was 15.3 µM, the GI50 [34] was 2.22 µM and the TGI [34] was 10.2 µM. For the same compound, the GI50 [35] was 1.94 µM, the TGI [35] was 5.35 µM and the GI50 [36] was 4.21 µM. The TGI [36] was 13.4 µM, the GI50 [37] was 2.31 µM and the TGI [37] was 7.02 µM. It also gave a GI50 [38] of 3.69 µM, a TGI [38] of 17.7 µM and a GI50 [39] of 2.39 µM. It also gave a TGI [39] of 7.66 µM, a GI50 [40] of 2.33 µM and a TGI [40] of 7.59 µM. For the same compound, the GI50 [41] was 3.38 µM, the TGI [41] was 18.7 µM and the GI50 [56] was 8.27 µM. For the same compound, the TGI [56] was 34.1 µM, the GI50 [42] was 2.36 µM and the TGI [42] was 7.61 µM. The GI50 [43] was 3.7 µM, the TGI [43] was 14.8 µM and the GI50 [57] was 1760 nM. For the same compound, the TGI [57] was 13.9 µM, the GI50 [44] was 3.81 µM and the TGI [44] was 14.5 µM. The GI50 [45] was 2.49 µM, the TGI [45] was 8.26 µM and the GI50 [46] was 2.97 µM. For the same compound, the TGI [46] was 22.3 µM, the GI50 [47] was 3.61 µM and the TGI [47] was 17.9 µM. For the same compound, the GI50 [48] was 3.15 µM, the TGI [48] was 12.8 µM and the GI50 [49] was 3.23 µM. The TGI [49] was 10.5 µM, the GI50 [58] was 2350 nM and the TGI [58] was 6.61 µM. For the same compound, the GI50 [50] was 2.72 µM, the TGI [50] was 10.7 µM and the GI50 [51] was 2.98 µM. It also gave a TGI [51] greater than 100 µM.
